Results from patent US8759537B2, “3H-imidazo [4, 5-C] pyridine-6-carboxamides as anti-inflammatory agents” (Boehringer Ingelheim International GmbH, priority 2010, dated 2014).

Tests used:
mPGES-1 [1] = biological target: T1, mPGES-1 (Homo sapiens (Human), UniProt O14684); assay: mPGES-1 enzyme assay (HTRF detection of PGE2); format: biochemical; details: recombinant human mPGES-1 microsomes, PGH2 2 μM; read-out: mPGES-1 inhibitory effect in the enzyme assay, IC50
Method: Microsomes from Rosetta E. coli bacteria expressing recombinant human mPGES-1 can be derived as described below:
Inoculate 5 ml LB with Ampicilin (50 μg/ml) and Chloramphenicol (34 μg/ml) with bacteria from freeze culture. Incubate 8 h at 37° C. with 200 rpm. Thereafter, inoculate 500-1000 ml LB containing Amp and Chloro with the 5 ml on culture and grow to OD640 of 0.8-1.0. Chill the culture to +4° C. before induction. Induce the culture with IPTG at a final concentration of 400 μM. Express the protein at room temp 18-23° C. with 200 rpm shaking over night.
The following steps can be performed on the following day: • 1. Spin down the cells in 250 ml centrifuge flasks for 15 min at 7000 rpm (Beckmann Coulte Avanti J-E centrifuge) • 2. Dissolve the pellet from 250 ml culture in 12.5 ml homogenization buffer • 3. (15 mM Tris-HCL pH8, 1 mM EDTA pH8, […], 2.5 mM GSH, 1 Tablet Protease inhibitor per 50 ml buffer) • 4. […] Add 2.5 ml MgCl2 (100 mM) and DNase 12.5 μl (0.8 mg/ml) and incubate on ice for 30 min • 6. Spin down the bacteria debris and save the supernatant, 7000 rpm for 15 min • 7. Isolate the protein containing membranes in the supernatant by ultracentrifugation 120000×g for 2 hour at 4° C. (Sorvall T880 rotor). • 8. Discard the supernatant and dissolve the pellet in 20 mM Potassium phosphate buffer pH7.4 (KH2PO4 and K2HPO4) buffer by sonication (5×10 s, 30% of a 50 W sonifier) and aliquot the enzyme and store aliquots at −80° C.
Before each experiment is performed an aliquot of the enzyme is thawed and it can then be dissolved in 0.1 M Potassium phosphate buffer pH7.4 (KH2PO4 and K2HPO4) buffer containing 2.5 mM GSH.
The aim of this assay is to determine the affinity of a test compound for the mPGES-1 enzyme.
47 μl of recombinant human mPGES-1 (˜0.5 μg protein/well) containing microsomal suspension in a buffer containing GSH, (2.5 mmol/L L-Glutathione reduced, dissolved in 0.1 mol/L Phosphat Buffer pH 7.4) is dispensed in a 384-well plate and thereafter 1 μl of the test compound(s) is/are added and incubated for 25 minutes at room temperature. The enzyme reaction is started by the addition of 2 ul PGH2 (final conc. 2 μM) dissolved in water-free Diglyme. After 60 seconds the reaction is terminated by addition of a stop solution containing FeCl2 (10 μL 0.074 mol/l FeCl2). The samples are diluted between 1:25 in PBS (Phosphate Buffered Saline). 10 μl of the diluted samples are transferred to 384-well low volume plate. In order to quantify the amount of PGE2 that has been formed, a homogenous time resolved fluorescent (HTRF) detecting of PGE2 has been performed using a commercially available kit from Cisbio according to the manufactures recommendation. […] Briefly, the diluted samples are mixed with 5 μl PGE2-d2 conjungate and 5 μl anti-PGE2 cryptate conjungate. After an incubation period of the plates over night, the fluorescence is measured by the use of an appropriate microplate reader.
The quantification plate contains also wells with different concentrations of PGE2 as calibration curve for the calculation of the PGE2 concentrations from the HTRF ratio values.
From all mPGES enzyme assay the background is subtracted and the IC50 is calculated over a nonlinear regression with conventional software.

mPGES-1 [2] = biological target: T1, mPGES-1; assay: A549 cell-based assay (PGE2 formation, IL-1β stimulated, 50% human serum); details: A549 cells
Method: Although the enzymatic assay is a high throughput assay the disadvantage is that it uses a recombinant protein which is not in its natural environment. Accordingly a cellular assay was established in which a cell line of human origin (A549) expressing the mPGES-1 protein was used. In addition in order to mimic the situation in humans in which compounds can be bound to plasma proteins 50% human serum is added in the assay.
Cells were detached using Trypsin-EDTA. A549 cells were seeded in a 384-well collagene plate at a density of 7000 cells/well (50 μl) in F-12 medium containing 1% Penicillin-Streptomycin and 50% human serum. The cells were allowed to attach for 3-4 h. […] The total volume is 100 μl.
Concentrations of PGE2 in the cell free medium (10 μl) were measured using a commercially available HTRF kit from Cisbio (as described above). The PGE2 formation in the absence of test compound was taken as 100%.
IC50 values were derived from at 6-8 point titrations using conventional software.

[3] = IL-1β 5 ng/ml, read-out: mPGES-1 inhibitory effect in the cell assay, IC50

T1 sequence (O14684 whole entry): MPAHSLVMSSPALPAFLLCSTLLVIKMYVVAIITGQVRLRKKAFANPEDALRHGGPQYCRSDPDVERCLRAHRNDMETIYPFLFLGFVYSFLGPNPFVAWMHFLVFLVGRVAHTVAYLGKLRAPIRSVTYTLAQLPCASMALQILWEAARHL

IC50 (mPGES-1 [1]) [nM] | IC50 (mPGES-1 [2]; [3]) [nM] | IC50 (mPGES-1 [2]; Table C comparison of selected benzimidazoles, read-out: Cell IC50) [nM] | Structure (SMILES)
2 | 16 | – | Cc1ccc(CNC(=O)C(C)(C)C)c(C)c1Nc1nc2cc(C(=O)Nc3ccc(F)c(Cl)c3)c(OCC(F)F)cc2n1C [Example 71]
3 | 2 | – | Cn1c(Nc2c(Cl)ccc(CNC(=O)C(C)(C)C)c2Cl)nc2cc(C(=O)NCC(F)(F)F)c(OCC(F)F)cc21 [Example 58]
7 | 4 | – | Cn1c(Nc2c(F)ccc(CNC(=O)C(C)(C)C)c2F)nc2cc(C(=O)N[C@H]3CC[C@H](C(F)(F)F)CC3)c(F)cc21 [Example 10]
2 | 3 | – | Cn1c(Nc2c(F)ccc(CNC(=O)C(C)(C)C)c2F)nc2cc(C(=O)Nc3cc(F)cc(Cl)c3)c(OCC(F)F)cc21 [Example 69]
4 | < 1 | – | Cn1c(Nc2c(Cl)ccc(CNC(=O)C(C)(C)C)c2Cl)nc2cc(C(=O)NCC3CCCCC3)c(OCC(F)F)cc21 [Example 52]
3 | 11 | – | Cn1c(Nc2c(Cl)ccc(CNC(=O)OC(C)(C)C)c2Cl)nc2cc(C(=O)Nc3ccc(F)c(Cl)c3)c(OCC(F)F)cc21 [Example 15]
1 | < 1 | – | COCCOc1cc2c(cc1C(=O)Nc1ccc(F)c(Cl)c1)nc(Nc1c(Cl)ccc(CNC(=O)C(C)(C)C)c1Cl)n2C [Example 178]
4 | < 1 | – | Cn1c(Nc2c(Cl)ccc(CNC(=O)C(C)(C)C)c2Cl)nc2cc(C(=O)Nc3cccc(Cl)c3)c(OCC(F)F)cc21 [Example 30]
4 | 3 | – | CCNC(=O)c1cc2nc(Nc3c(Cl)ccc(CNC(=O)C(C)(C)C)c3Cl)n(C)c2cc1OCC(F)F [Example 56]
3 | 36 | – | Cn1c(Nc2c(Cl)ccc(CNC(=O)C(C)(C)C)c2Cl)nc2cc(C(=O)NCC(F)(F)F)c(F)cc21 [Example 21]
1 | 7 | – | Cn1c(Nc2c(Cl)ccc(CNC(=O)N3CC(F)(F)C3)c2Cl)nc2cc(C(=O)N[C@H]3CC[C@H](C(F)(F)F)CC3)c(OCC(F)F)cc21 [Example 80, N-(trans-4-Trifluoromethyl-cyclohex-1-yl)-2-{2,6-dichloro-3-[(3,3-difluoro-azetidine-1-carbonylamino)-methyl]-phenylamino}-6-(2,2-difluoroethoxy)-1-methyl-1H-benzimidazole-5-carboxylic acid amide]
1 | < 1 | – | Cn1c(Nc2c(Cl)ccc(CNC(=O)C(C)(C)C)c2Cl)nc2cc(C(=O)Nc3ccc(F)c(Cl)c3)c(OC3CCOC3)cc21 (stereo not drawn) [Example 179]
3 | < 1 | – | Cn1c(Nc2c(Cl)ccc(CNC(=O)C(C)(C)C)c2Cl)nc2cc(C(=O)Nc3ccc(C(F)(F)F)nc3)c(OCC(F)F)cc21 [Example 47]
2 | 1 | – | Cn1c(Nc2c(Cl)ccc(CNC(=O)C(C)(C)C)c2Cl)nc2cc(C(=O)Nc3cc(C(F)(F)F)ccn3)c(OCC(F)F)cc21 [Example 67]
3 | 1 | – | Cn1c(Nc2c(Cl)ccc(CNC(=O)C(C)(C)C)c2Cl)nc2cc(C(=O)NCCC(F)(F)F)c(OCC(F)F)cc21 [Example 48]
3 | – | – | CC(C)(C)C(=O)NCc1ccc(F)c(Nc2nc3cc(C(=O)Nc4ccc(F)c(Cl)c4)c(F)cc3[nH]2)c1F [Example 24]
– | 85 | – | Cn1c(Nc2c(Cl)ccc(CNC(=O)c3cc[nH]n3)c2Cl)nc2cc(C(=O)NCC(F)(F)F)c(OCC(F)F)cc21 [Example 127]
– | 72 | – | Cn1c(Nc2c(Cl)ccc(CNC(=O)C(C)(C)CO)c2Cl)nc2cc(C(=O)NCC(F)(F)F)c(OCC(F)F)cc21 [Example 126]

IC50 (mPGES-1 [1]) [nM] | IC50 (mPGES-1 [2]; [3]) [nM] | IC50 (mPGES-1 [2]; Table C comparison of selected benzimidazoles, read-out: Cell IC50) [nM] | Structure (SMILES)
– | 2 | – | Cn1c(Nc2c(Cl)ccc(CNC(=O)C3CC3)c2Cl)nc2cc(C(=O)Nc3ccc(F)c(Cl)c3)c(OCC(F)F)cc21 [Example 148]
– | 27 | – | Cn1c(Nc2c(Cl)ccc(CNC(=O)CO)c2Cl)nc2cc(C(=O)Nc3ccc(F)c(Cl)c3)c(OCC(F)F)cc21 [Example 139]
– | 25 | – | Cn1c(Nc2c(Cl)ccc(CNC(=O)C3(C#N)CC3)c2Cl)nc2cc(C(=O)NCC(F)(F)F)c(OCC(F)F)cc21 [Example 113]
– | 106 | – | Cn1c(Nc2c(Cl)ccc(CNC(=O)c3ccno3)c2Cl)nc2cc(C(=O)NCC(F)(F)F)c(OCC(F)F)cc21 [Example 107]
– | 5 | – | COCC(=O)NCc1ccc(Cl)c(Nc2nc3cc(C(=O)Nc4ccc(F)c(Cl)c4)c(OCC(F)F)cc3n2C)c1Cl [Example 163]
– | 2 | – | Cn1c(Nc2c(Cl)ccc(CNC(=O)C(C)(N)C(F)(F)F)c2Cl)nc2cc(C(=O)NCC(F)(F)F)c(OCC(F)F)cc21 (stereo not drawn) [Example 98]
– | 8 | – | Cn1c(Nc2c(Cl)ccc(CNC(=O)c3cc[nH]n3)c2Cl)nc2cc(C(=O)Nc3ccc(F)c(Cl)c3)c(OCC(F)F)cc21 [Example 134]
– | 7 | – | CCC(=O)NCc1ccc(Cl)c(Nc2nc3cc(C(=O)NCC(F)(F)F)c(OCC(F)F)cc3n2C)c1Cl [Example 111]
– | – | > 200 | Cn1c(Nc2cc(CNC(=O)C(C)(C)C)ccc2Cl)nc2cc(C(=O)NCC3CC3)c(OCC(F)F)cc21 [[drawing 49] of PCT/EP2010/052799, reference compound]
– | 2 | – | Cn1c(Nc2c(Cl)ccc(CNC(=O)CC3CC3)c2Cl)nc2cc(C(=O)Nc3ccc(F)c(Cl)c3)c(OCC(F)F)cc21 [Example 144]
– | 1 | – | CC(C)(C)C(=O)NCc1ccc(Cl)c(Nc2nc3c(F)c(OCC(F)(F)F)c(C(=O)N[C@H]4CC[C@H](C(F)(F)F)CC4)cc3[nH]2)c1Cl [Example 79]
– | < 1 | – | Cn1c(Nc2c(Cl)ccc(CNC(=O)C3(C(F)(F)F)CCC3)c2Cl)nc2cc(C(=O)NCC(F)(F)F)c(OCC(F)F)cc21 [Example 86]
– | 2 | – | Cn1c(Nc2c(Cl)ccc(CNC(=O)C3CCC3)c2Cl)nc2cc(C(=O)Nc3ccc(F)c(Cl)c3)c(OCC(F)F)cc21 [Example 172]
– | 1 | – | Cn1c(Nc2c(Cl)ccc(CNC(=O)C3(C)CC3)c2Cl)nc2cc(C(=O)Nc3ccc(F)c(Cl)c3)c(OCC(F)F)cc21 [Example 133]
– | 4 | – | CC(C)(C)C(=O)NCc1ccc(F)c(Nc2nc3cc(C(=O)Nc4ccc(Br)cc4)c(OCC(F)F)cc3n2C2CC2)c1F [Example 11]
– | 4 | – | Cn1c(Nc2c(Cl)ccc(CNC(=O)C3(O)CC3)c2Cl)nc2cc(C(=O)Nc3ccc(F)c(Cl)c3)c(OCC(F)F)cc21 [Example 171]
– | 15 | – | Cn1c(Nc2c(Cl)ccc(CNC(=O)C3CC(F)(F)C3)c2Cl)nc2cc(C(=O)NCC(F)(F)F)c(OCC(F)F)cc21 [Example 102]

Structure (SMILES) | IC50 (mPGES-1 [1]) [nM] | IC50 (mPGES-1 [2]; [3]) [nM] | IC50 (mPGES-1 [2]; Table C comparison of selected benzimidazoles, read-out: Cell IC50) [nM]
Cn1c(Nc2c(Cl)ccc(CNC(=O)N3CCC(F)(F)C3)c2Cl)nc2cc(C(=O)N[C@H]3CC[C@H](C(F)(F)F)CC3)c(OCC(F)F)cc21 [Example 81] | 3 | 50 | –
Cn1c(Nc2c(Cl)ccc(CNC(=O)C(C)(C)C)c2Cl)nc2cc(C(=O)Nc3ccc(Cl)cc3Cl)c(OCC(F)F)cc21 [Example 60, N-(2,4-dichloro-phenyl)-2-{2,6-dichloro-3-[(2,2-dimethyl-propionylamino)-methyl]-phenylamino}-6-(2,2-difluoro-ethoxy)-1-methyl-1H-benzimidazole-5-carboxylic acid amide] | 3 | < 1 | –
